Data reported in US7109341B2, “Therapeutic amides” (Wayne State University, priority 2002, dated 2006).
“And” between values parts separate entries of the source, which are not always exact repeats. Equal values may be shown once. Read-outs that look alike come from different tables or passages of the source.

How the values were obtained:
[1] = system: Pancreatic Adenocarcinoma 03; assay: Evaluation against early stage Pancreatic Adenocarcinoma 03 in BDF1 male mice (Table 1); assay type: in vivo, mouse; conditions: Cage 8; IV; QD 3–5; total 180 mg/kg
[2] = system: Pancreatic Ductal Adenocarcinoma #03; assay: Evaluation against early stage Pancreatic Ductal Adenocarcinoma #03, BD1 female mice (Table 2); conditions: Cage 2; IV; QD3–6, 10; total 300 mg/kg
[3] = system: Mammary Adenocarcinoma 17/ADR; assay: Evaluation against early stage Mammary Adenocarcinoma 17/ADR, C3H/He females (Table 3); assay type: in vivo; conditions: IV
[4] = system: Pancreatic Ductal Adenocarcinoma 03; assay: Evaluation against early stage Pancreatic Ductal Adenocarcinoma 03 in female BDF1 mice (Table 4); assay type: in vivo, mouse; conditions: IV
Source text: The higher dose requirement for compound 14e may be a disadvantage over compound 11b (Cage 14).

[5] = IV; total dose; cited from earlier work
[6] = system: Pancreatic Ductal Adenocarcinoma 03; conditions: footnote, no dose given; cited from earlier work;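 for T/C: mice carrying bilateral subcutaneous tumors, with tumor weight estimated from two-dimensional caliper readings taken twice a week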;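 for activity rating: mice carrying bilateral subcutaneous tumors, with tumor weight estimated from two-dimensional caliper readings taken twice a week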
[7] = system: Mammary Adenocarcinoma 16/C; conditions: Cage 4, IV, qd 1–5, total 240 mg/kg
Source text: Table 7. […] The animal was then re-implanted with Mam16/C/71.

[8] = system: Pancreatic Ductal Adenocarcinoma 03; assay: Evaluation against early stage Pancreatic Ductal Adenocarcinoma 03, IP route, C57 females (Table 9); assay type: in vivo
Protocol: The IP route was used for two reasons. […] This is approximately 40% of the dose given IV with the racemic mix (60 mg/kg, see Table 7).

[9] = Water solubility noted on drug preparation for injection; assay type: physicochemical; conditions: white solid + 3% EtOH + 1% POE + 0.25% NaHCO3 + saline, pH = 9 → 7 with 1N HCl
Protocol: (§1) Compounds as their sodium salts were prepared in a 1% sodium bicarbonate solution, H2O or phosphate buffered saline (PBS), with pH adjusted to 7.0 to 7.5 with HCl, and administered intravenously (IV) or orally (PO), at injection volumes of 0.2 mL per injection.

[10] = system: Mammary Adenocarcinoma 16/C
Source text: (§2) Pancreatic ductal adenocarcinoma-03, mammary adenocarcinoma-16/C, mammary adenocarcinoma-17/Adr, and human melanoma LOX were used in the studies. Tumors were maintained in the mouse strain of origin (C57B1/6 for Panc-03 and C3H for the mammary tumors). Balb/c SCID mice (B and T cell deficient) were used for tumor maintenance and chemotherapy trials involving the human melanoma LOX. Tumors were transplanted into the appropriate F1 hybrid (B6D2F1=C57B 1/6 female× DBA/2 male) or the strain of origin for the chemotherapy trials. Individual mouse body weights for each experiment were within 5 grams, and all mice were over 17 grams at the start of therapy. The mice were supplied food and water ad libitum.
(§3) Animals were pooled, implanted subcutaneously with 30 to 60 mg tumor fragments by a 12 gauge trocar on day 0, and again pooled before unselective distribution to the various treatment and control groups. For early stage treatment, chemotherapy was started within 1 to 3 days after tumor implantation while the number of cells was relatively small (10^7 to 10^8 cells). For upstaged or advanced staged trials, the tumors were allowed to grow for five or more days before treatment was started. Tumors were measured with a caliper twice weekly. […] Tumor weights are estimated from two-dimensional measurements:
(§4) Tumor weight (in mg)=(a×b^2)/2, where a and b are the tumor length and width in (mm), respectively.
a) Tumor growth delay (T−C value), where T is the median time (in days) required for the treatment group tumors to reach a predetermined size (e.g., 1,000 mg), and C is the median time (in days) for the control group tumors to reach the same size. Tumor-free survivors were are excluded from these calculations (cures are tabulated separately).
(§5) b) Calculation of tumor cell kill for subcutaneously (SC) growing tumors. […] The conversion of the T−C values to log10 cell kill is possible because the Td of tumors re-growing post treatment (Rx) approximates the Td values of the tumors in untreated control mice.
(§6) It should be noted that an activity rating of +++ to ++++ is needed to effect partial regression (PR) or complete regression (CR) of 100 to 300 mg size masses of most transplanted solid tumors of mice. Thus, an activity rating of + or ++ would not be scored as active by usual clinical criteria. A PR is a reduction in tumor mass to less than 50% of pretreatment size. A CR is a reduction in tumor mass to below palpable size (i.e., reduction to zero detectable mass).
(§7) The T/C value in percent is an indication of anti-tumor effectiveness: A T/C=0% means no tumor growth. A T/C=100% means no anti-tumor activity, i.e., the treated and control tumors grew equally. […] A T/C value<10% is considered to indicate highly significant anti-tumor activity, and is the level used by NCI to justify a clinical trial if toxicity, formulation, and certain other requirements are met (termed DN-2 level activity).
as §1

[11] = system: Pancreatic Ductal Adenocarcinoma 03; conditions: for Comments (Active/Inactive) / Comments (activity rating) / Drug Death / Log Cell Kill / Median Tumor Burden in mg on d17 / T-C / T/C % / Time to 1000 mg / Tumor Free on 148: BDF1 males;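 for T/C: mice carrying bilateral subcutaneous tumors, with tumor weight estimated from two-dimensional caliper readings taken twice a week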;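 for activity rating: mice carrying bilateral subcutaneous tumors, with tumor weight estimated from two-dimensional caliper readings taken twice a week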
Source text: as §2, §3, §4
a) Tumor growth delay (T−C value), where T is the median time (in days) required for the treatment group tumors to reach a predetermined size (e.g., 1,000 mg), and C is the median time (in days) for the control group tumors to reach the same size. Tumor-free survivors were are excluded from these calculations (cures are tabulated separately). This value is an important criterion of anti-tumor effectiveness because it allows the quantification of tumor cell kill.
as §5, §6, §7, §1
Thus, for this test, all compounds initially were to be given IP, in an attempt to identify a suitable alternate route of administration.

[12] = Cage 4, 56 mg/kg/injection QD-1–5 and 10, total 336 mg/kg
[13] = Cage 5, 57 mg/kg/injection QD 3–9, total 399 mg/kg
[14] = Cage 6, 38 mg/kg/injection QD 3–9, total 266 mg/kg
[15] = Cage 2, 7.5 mg/kg/inj days 1, 7, total 15 mg/kg
[16] = Cage 5, Qd3–7, total 157.5 mg/kg
[17] = Cage 2, IV, Q2Dx8, total 480 mg/kg
[18] = Cage 11, IP, 80 mg/kg/inj days 3, 5, 11, 13, 15, total 400 mg/kg
[19] = Cage 12, IP, 50 mg/kg/inj Q2d×7 from day 3, total 350 mg/kg
[20] = IP, Q2d: 3–15, total dosage 350 mg/kg
[21] = IP, d3, 5, 11, 13, 15, total dosage 400 mg/kg

In the case of `CC(Oc1ccc(Oc2cnc3ccc(Cl)cc3n2)cc1)C(=O)O` (racemic) [XK469, reference compound], the “Day of Wt. Loss Nadir” value [1] is reported as 8 days, the “Drug Deaths (days of death)” value [1] is reported as “no drug deaths and 0/5” and the “Log Kill” value [1] is reported as 1.43 and 1.4. For the same molecule, the “Mean Body Wt. Loss in g/mouse” value [1] was −3.6 g/mouse, the “Median tumor burden in mg on day 14 (range)” value [1] was 189 mg and the “Percent Body Wt. Loss” value [1] was −15.5%. For the same molecule, the “T-C” value [1] was 9 days, the T/C % [1] was 11% and the “Time to 1000 mg days (range)” value [1] was 20 days. The “Tumor Free on day 21” value [1] was 0/5, the “day of body weight recovery” value [1] was 13 days and the “Activity Rating” value [2] was “++++ (Highly active >2.8)”. The “Day of Wt. Loss Nadir” value [2] was 8 days, the “Drug Deaths (day of death)” value [2] was 0/5 and the “Growth Delay” value [2] was 28.1 days. The “Log Cell Kill” value [2] was 3.3, the “Mean Body Wt. Loss (g/mouse)” value [2] was −3.2 g/mouse and the “Median Tumor Burden in mg on d18 (Range)” value [2] was 64 mg. The T/C % [2] was 4%, the “Time in days to 1000 mg (range)” value [2] was 41.1 days and the “Tumor Free on d 154” value [2] was 1/5. The “day of full body weight recovery” value [2] was about 12 days, the “% Body Wt Loss at Nadir” value [3, 12] was −7.1% and the “% T/C mass” value [3, 12] was 9%. For the same molecule, the “Activity Rating” value [3, 12] was “++++ (Highly active >2.8)”, the “Day of Nadir” value [3, 12] was 8 days and the “Drug Deaths” value [3, 12] was 0/5. The “Growth Delay” value [3, 12] was 15.5 days, the “Log Kill” value [3, 12] was 4.2 and the “Median Tumor Mass on Day 9 (Range)” value [3, 12] was 108. For the same molecule, the “Tumor Free day-21” value [3, 12] was 0/5, the “% Body Wt Loss at Nadir” value [4, 13] was −6.7% and the “% T/C mass” value [4, 13] was 4.1%. For the same molecule, the “Activity Rating” value [4, 13] was “++ (1.3–1.9)”, the “Day of Nadir” value [4, 13] was 8 days and the “Drug Deaths” value [4, 13] was 0/5. For the same molecule, the “Growth Delay” value [4, 13] was 11.5 days, the “Log Kill” value [4, 13] was 1.7 and the “Median Tumor Mass on Day 14 (Range)” value [4, 13] was 63. The “Tumor Free day-37” value [4, 13] was 0/5, the “% Body Wt Loss at Nadir” value [4, 14] was −6.7% and the “% T/C mass” value [4, 14] was 8.3%. The “Activity Rating” value [4, 14] was “++ (1.3–1.9)”, the “Day of Nadir” value [4, 14] was 5 days and the “Drug Deaths” value [4, 14] was 0/5. For the same molecule, the “Growth Delay” value [4, 14] was 9.5 days, the “Log Kill” value [4, 14] was 1.4 and the “Median Tumor Mass on Day 14 (Range)” value [4, 14] was 126. The “Tumor Free day-37” value [4, 14] was 0/5 and the “MTD (historical)” value [5] was 450 to 480 mg/kg.
With `COc1cccc2c1C(=O)c1c(O)c3c(c(O)c1C2=O)C[C@@](O)(C(=O)CO)C[C@@H]3O[C@H]1C[C@H](N)[C@H](O)[C@H](C)O1` [Adriamycin, reference compound] the “% Body Wt Loss at Nadir” value [3, 15] was −1.4%, the “% T/C mass” value [3, 15] was 90% and the “Activity Rating” value [3, 15] was “inactive”. The “Day of Nadir” value [3, 15] was 7 days, the “Drug Deaths” value [3, 15] was 0/5 and the “Growth Delay” value [3, 15] was 0 days. For the same molecule, the “Log Kill” value [3, 15] was “none”, the “Median Tumor Mass on Day 9 (Range)” value [3, 15] was 1086 and the “Tumor Free day-21” value [3, 15] was 0/5. The “sensitivity of this tumor to standard agents (activity rating)” value (from here on “sensitivity of this tumor”) [6] was “It is nicely sensitive to Adriamycin (+++ activity). (2.0–2.8)”.
For `O=c1[nH]cc(F)c(=O)[nH]1` [Compound 5-FU, 5-FU], the “sensitivity of this tumor” value [6] is listed as “It is modestly responsive to 5-FU (+ activity). (0.7–1.2)”.
In the case of `CC(Oc1ccc(Oc2ccc3ccc(Br)cc3n2)cc1)C(=O)O` [Compound 11c (R), 2-{4-{(7-bromo-2-quinolinyl)oxy}phenoxy}propionic acid, reference compound], the “Day of Wt. Loss Nadir” value [7] is reported as 9 days, the “Drug Death (day of death)” value [7] is reported as “One animal died and 1/5” and the “Log Cell Kill” value [7] is reported as 1.8. For the same molecule, the “Mean Body Wt. Loss in g/mouse” value [7] was −6.0 g/mouse, the “Median Tumor Burden in mg on d 9 (range)” value [7] was 0 mg and the “Percent Body Weight Loss” value [7] was −29.4%. The “T-C” value [7] was 7.2 days, the T/C % [7] was 0% and the “Time to 1,000 mg in days (range)” value [7] was 15.2 days. The “Tumor Free on d 161” value [7] was 0/5, the “day of body weight recovery” value [7] was at most 13 days and the toxicity observations [7] was “diarrhea”. For the same molecule, the “body weight loss day 6” value ([7]; day 6) was −17.5%, the “Comments (activity rating)” value ([8]; Cage 4, Qd3–7, total 260 mg/kg) was “LD20” and the “Day of Wt. Loss Nadir” value ([8]; Cage 4, Qd3–7, total 260 mg/kg) was 10 days. The “Drug Death (day of death)” value ([8]; Cage 4, Qd3–7, total 260 mg/kg) was “One drug death and 1/5”, the “Log Cell Kill” value ([8]; Cage 4, Qd3–7, total 260 mg/kg) was 1.5 and the “Mean Body Wt. Loss in g/mouse” value ([8]; Cage 4, Qd3–7, total 260 mg/kg) was −3.2 g/mouse. For the same molecule, the “Median Tumor Burden in mg on d14 (range)” value ([8]; Cage 4, Qd3–7, total 260 mg/kg) was 126 mg, the “Percent Body Weight Loss” value ([8]; Cage 4, Qd3–7, total 260 mg/kg) was −16.7% and the “T-C” value ([8]; Cage 4, Qd3–7, total 260 mg/kg) was 10.5 days. The T/C % ([8]; Cage 4, Qd3–7, total 260 mg/kg) was 12.6%, the “Time to 1000 mg in days (range)” value ([8]; Cage 4, Qd3–7, total 260 mg/kg) was 24.5 days and the “Tumor Free on d31” value ([8]; Cage 4, Qd3–7, total 260 mg/kg) was 0/5. The “day of full body weight recovery” value ([8]; Cage 4, Qd3–7, total 260 mg/kg) was at most 17 days, the “Day of Wt. Loss Nadir” value [8, 16] was 9 days and the “Drug Death (day of death)” value [8, 16] was 0/5. For the same molecule, the “Log Cell Kill” value [8, 16] was 1.58, the “Mean Body Wt. Loss in g/mouse” value [8, 16] was −0.0 g/mouse and the “Median Tumor Burden in mg on d14 (range)” value [8, 16] was 260 mg. The “T-C” value [8, 16] was 11 days, the T/C % [8, 16] was 26% and the “Time to 1000 mg in days (range)” value [8, 16] was 25 days. The “Tumor Free on d31” value [8, 16] was 0/5, the “Preparation: state of the injection preparation” value [9] was “Compound 11c (R): white solid + 3% EtOH + 1% POE + 0.25% NaHCO3 + saline → solution (pH = 9 → 7 with 1N HCl); 0.5 ml/mouse/inj, IP” and the “Drug Death (day of death)” value [10, 17] was 0/5. For the same molecule, the “Log Cell Kill” value [10, 17] was 4.8, the “Median Tumor Burden in mg on day 7 (range)” value [10, 17] was 0 mg and the “T-C” value [10, 17] was 16 days. For the same molecule, the T/C % [10, 17] was 0%, the “Time to 1000 mg in days (range)” value [10, 17] was 22 days and the “Tumor Free on d28” value [10, 17] was “no cures and 0/5”. For the same molecule, the “Day of Wt. Loss Nadir” value ([10]; mouse, in vivo) was 14 days, the “Percent Body Weight Loss” value ([10]; mouse, in vivo) was −4.3% and the Activity Rating [11, 18] was “++++ (Highly active >2.8)”. For the same molecule, the T/C [11, 18] was 0%, the log cell kill [11, 18] was 3.3 and the “tumor free on day 148” value [11, 18] was 1/5 and One mouse remained tumor free. For the same molecule, the Activity Rating [11, 19] was “++ (1.3–1.9)”, the T/C [11, 19] was 3% and the log kill [11, 19] was 1.4. For the same molecule, the “Comments (Active/Inactive)” value [11, 20] was “Active”, the “Comments (activity rating)” value [11, 20] was “(++) (1.3–1.9)” and the “Drug Death” value [11, 20] was 0/5. For the same molecule, the “Log Cell Kill” value [11, 20] was 1.4, the “Median Tumor Burden in mg on d17” value [11, 20] was 63 mg and the “T-C” value [11, 20] was 10 days. The T/C % [11, 20] was 3%, the “Time to 1000 mg” value [11, 20] was 25 days and the “Tumor Free on 148” value [11, 20] was 0/5. The “Comments (Active/Inactive)” value [11, 21] was “Active”, the “Comments (activity rating)” value [11, 21] was “(++++) (Highly active >2.8)” and the “Drug Death” value [11, 21] was 0/5. For the same molecule, the “Log Cell Kill” value [11, 21] was 3.3, the “Median Tumor Burden in mg on d17” value [11, 21] was 0 mg and the “T-C” value [11, 21] was 23 days. The T/C % [11, 21] was 0%, the “Time to 1000 mg” value [11, 21] was 38 days and the “Tumor Free on 148” value [11, 21] was 1/5. For the same molecule, the “Day of Wt. Loss Nadir” value ([11]; mouse, in vivo) was 9 days and 8 days, the “day of full weight recovery” value ([11]; mouse, in vivo) was 16 days and 11 days and the “day of weight loss nadir” value ([11]; mouse, in vivo) was 9 days and 8 days.
In the case of `CC(=O)O[C@H]1C(=O)[C@@]2(C)[C@H]([C@H](OC(=O)c3ccccc3)[C@]3(O)C[C@H](OC(=O)[C@H](O)[C@@H](NC(=O)c4ccccc4)c4ccccc4)C(C)=C1C3(C)C)[C@]1(OC(C)=O)CO[C@@H]1C[C@@H]2O` [Taxol], the “sensitivity of this tumor” value [6] is given as “This tumor is highly sensitive to Taxol (++++ activity rating). (Highly active >2.8)”.
In the case of `CC[C@]1(O)C[C@@H]2CN(CCc3c([nH]c4ccccc34)[C@@](C(=O)OC)(c3cc4c(cc3OC)N(C)[C@H]3[C@@](O)(C(=O)OC)[C@H](OC(C)=O)[C@]5(CC)C=CCN6CC[C@]43[C@@H]65)C2)C1` [Vinblastine], the “sensitivity of this tumor” value [6] is listed as “It is insensitive to Vinblastine”.
